Test system: patients after acute myocardial infarction
Assay: Life quality, Seattle Angina Questionnaire (SAQ), same clinical trial
Assay type: in vivo, human
Details: PP
From the text: 3508 patients who were in accordance with the diagnostic standards of AMI for 28 days to 2 years and differentiated as Qi deficiency and blood stagnation syndrome by TCM were studied. 0.5 g Chinese medicine composition prepared by the method of EXAMPLE 1 (Coded as QSYQ) was administrated half an hour after meal, 3 times per day.
There were 19 questions in the Seattle angina questionnaire (SAQ), including 5 parts: physical limitation (PL), anginal stability (AS), anginal frequency (AF), treatment satisfaction (TS) and disease perception (DP). After being given necessary explanation by doctors, the questions were answered independently by patients.
They included the overall survival time, angina pectoris score, TCM symptom score and life quality score, where angina pectoris score, TCM symptom score and life quality score were evaluated at randomization, in 1st, 3rd, 6th, 9th, 12th month after treatment and 18th month after follow-up.
All evaluation results of SAQ were described during the period of observation, and Wilcoxon rank sum test was used for inter-group comparison.
The evaluation results in the SAQ were depicted in different observations, and inter-group comparison was tested by Wilcoxon Rank-sum test.

Q: Which results are given for `CC(=O)Oc1ccccc1C(=O)O` [Control group, aspirine]?
A: SAQ Question 1-7: Moserately limited, patients (%) (3 months after treatment): (14.91%); SAQ Question 1-7: Not limited, patients (%) (3 months after treatment): (13.46%); SAQ Question 1-7: Other reasons, patients (%) (3 months after treatment): (3.11%); SAQ Question 1-7: Severely limited, patients (%) (3 months after treatment): (16.01%); SAQ Question 1-7: Slightly limited, patients (%) (3 months after treatment): (28.71%); SAQ Question 1-8: Mildly limited, patients (%) (3 months after treatment): (25.82%); SAQ Question 1-8: Moderately limited, patients (%) (3 months after treatment): (17.90%); SAQ Question 1-8: Not limited, patients (%) (3 months after treatment): (10.48%); SAQ Question 1-8: Other reasons, patients (%) (3 months after treatment): (2.91%); SAQ Question 1-8: Severely limieted, patients (%) (3 months after treatment): (21.30%); SAQ Question 1-8: Slightly limited, patients (%) (3 months after treatment): (21.58%); 8th question: Dissatisfied, patients (%) (6 months after treatment): (0.07%); 8th question: Highly satisfied, patients (%) (6 months after treatment): (20.69%); 8th question: Mostly satisfied, patients (%) (6 months after treatment): (56.70%); 8th question: Partly satisfied, patients (%) (6 months after treatment): (20.96%); 9th question: Few, patients (%) (6 months after treatment): (34.99%); 9th question: Mild, patients (%) (6 months after treatment): (34.44%); 9th question: Moderate, patients (%) (6 months after treatment): (10.54%); 9th question: Severe, patients (%) (6 months after treatment): (0.21%); 9th question: Uneffective, patients (%) (6 months after treatment): (19.83%); 10th question: Dissatisfied, patients (%) (6 months after treatment): (20.36%); 10th question: Highly satisfied, patients (%) (6 months after treatment): (4.88%); 10th question: Mostly dissatisfied, patients (%) (6 months after treatment): (21.32%); 10th question: Mostly satisfied, patients (%) (6 months after treatment): (26.34%); 10th question: Partly satisfied, patients (%) (6 months after treatment): (27.10%); 11th question: Continuously worried, patients (%) (6 months after treatment): (3.44%); 11th question: No worried, patients (%) (6 months after treatment): (4.81%); 11th question: Occasionally worried, patients (%) (6 months after treatment): (42.68%); 11th question: Often worried, patients (%) (6 months after treatment): (14.57%); 11th question: Seldom worried, patients (%) (6 months after treatment): (34.50%); SAQ 4th question, 1-2 times per week: % of patients (6 months after treatment): (18.08%); SAQ 4th question, 1-2 times per week: number of patients (6 months after treatment): 263; SAQ 4th question, 1-3 times per day: % of patients (6 months after treatment): (3.85%); SAQ 4th question, 1-3 times per day: number of patients (6 months after treatment): 56; SAQ 4th question, <1 time per week: % of patients (6 months after treatment): (11.34%); SAQ 4th question, <1 time per week: number of patients (6 months after treatment): 165; SAQ 4th question, Not used: % of patients (6 months after treatment): (60.14%); SAQ 4th question, Not used: number of patients (6 months after treatment): 875; SAQ 4th question, ≧3 times per week: % of patients (6 months after treatment): (6.53%); SAQ 4th question, ≧3 times per week: number of patients (6 months after treatment): 95; SAQ 4th question, ≧4 times per day: % of patients (6 months after treatment): (0.07%); SAQ 4th question, ≧4 times per day: number of patients (6 months after treatment): 1; SAQ 5th question, 1-2 times per week: % of patients (6 months after treatment): (27.01%); SAQ 5th question, 1-2 times per week: number of patients (6 months after treatment): 393; SAQ 5th question, 1-3 times per day: % of patients (6 months after treatment): (11.00%); SAQ 5th question, 1-3 times per day: number of patients (6 months after treatment): 160; SAQ 5th question, <1 time per week: % of patients (6 months after treatment): (28.18%); SAQ 5th question, <1 time per week: number of patients (6 months after treatment): 410; SAQ 5th question, No onset: % of patients (6 months after treatment): (4.47%); SAQ 5th question, No onset: number of patients (6 months after treatment): 65; SAQ 5th question, ≧3 times per week: % of patients (6 months after treatment): (28.93%); SAQ 5th question, ≧3 times per week: number of patients (6 months after treatment): 421; SAQ 5th question, ≧4 times per day: % of patients (6 months after treatment): (0.41%); SAQ 5th question, ≧4 times per day: number of patients (6 months after treatment): 6; SAQ 6th question, Dissatisfied: % of patients (6 months after treatment): (0.00%); SAQ 6th question, Dissatisfied: number of patients (6 months after treatment): 0; SAQ 6th question, Highly satisfied: % of patients (6 months after treatment): (22.27%); SAQ 6th question, Highly satisfied: number of patients (6 months after treatment): 324; SAQ 6th question, Mostly dissatisfied: % of patients (6 months after treatment): (1.65%); SAQ 6th question, Mostly dissatisfied: number of patients (6 months after treatment): 24; SAQ 6th question, Mostly satisfied: % of patients (6 months after treatment): (55.95%); SAQ 6th question, Mostly satisfied: number of patients (6 months after treatment): 814; SAQ 6th question, Partly satisfied: % of patients (6 months after treatment): (20.14%); SAQ 6th question, Partly satisfied: number of patients (6 months after treatment): 293; SAQ 7th question, Dissatisfied: % of patients (6 months after treatment): (0.07%); SAQ 7th question, Dissatisfied: number of patients (6 months after treatment): 1; SAQ 7th question, Highly satisfied: % of patients (6 months after treatment): (25.67%); SAQ 7th question, Highly satisfied: number of patients (6 months after treatment): 373; SAQ 7th question, Mostly dissatisfied: % of patients (6 months after treatment): (1.10%); SAQ 7th question, Mostly dissatisfied: number of patients (6 months after treatment): 16; SAQ 7th question, Mostly satisfied: % of patients (6 months after treatment): (58.22%); SAQ 7th question, Mostly satisfied: number of patients (6 months after treatment): 846; SAQ 7th question, Partly satisfied: % of patients (6 months after treatment): (14.93%); SAQ 7th question, Partly satisfied: number of patients (6 months after treatment): 217; SAQ Question 1-1 Mildly limited, number of patients (6 months after treatment): 22; SAQ Question 1-1 Mildly limited, percent of patients (6 months after treatment): (1.52%); SAQ Question 1-1 Moderately limited, number of patients (6 months after treatment): 4

Reference: patent publication US9211310B2, “Use of a Chinese medicine composition in preparing medicaments for treating secondary prevention of myocardial infarction” (TASLY PHARMACEUTICAL GROUP CO., LTD, priority 2010, dated 2015)
